# According to patent publication US6274611A, “Methods and compositions for inhibition of viral replication” (The United States of America as represented by the …, priority 1999, dated 2001):
# “Also recorded” adds a separate entry of the source.
# Legend:
# HIV-1 [1] = experiment: HIV-1 activation in TNF-α-treated OM-10.1 cultures, culture supernatant reverse transcriptase activity; assay type: cell-based, HIV-1 in OM-10.1 cells; settings: for HIV-1 inhibitory activity in the OM-10.1 induction system: OM-10.1 cells, TNF-α induction
# Description: (§1) FIG. 2 is a graph showing the inhibition of HIV-1 expression and toxicity in OM-10.1 cells by DRB, and similarity to inhibition imposed by chrysin and PD 144795. Reverse transcriptase activity (--.ae butted.--) was measured (as taught in Butera et al, Mol. Med. vol. 1, pp. 758-767 (1995)) in culture supernatants 48 hr after HIV activation, and cell viability (--.tangle-solidup.--) was assessed at 24 hr by flow cytometric analysis of propidium iodide exclusion. Inset: A graph showing the inhibition of HIV-1 expression in OM-10.1 cells by chrysin- (--Δ--) and PD 144795 (--.star.--) treatment of HIV-1.
# (§2) OM-10.1 and HL-60 cells as described in Example 1 were propagated in RPMI-1640 supplemented with 10% heat-inactivated fetal calf serum, 2 mM glutamine, and 1% Pen-Strep. Induction of HIV-1 using TNF-α (Butera, S. T., et al, J. Virol. Vol. 65, pp. 4645-4653 (1991)), and antiviral assays (Butera, S. T., et al MoL Med. Vol. 1, pp. 758-767 (1995), Critchfield, J. W., et al., AIDS Res. Hum. Retr. Vol. 12, pp. 39-46 (1996)), were performed as described. For binding studies, cultures were grown to a density of 106 /ml, washed twice with cold PBS, and the cell pellet either flash-frozen in dry ice/ethanol for storage at -70° C., or immediately lysed in 1 ml cold lysis buffer/10^7 cells. Lysis buffer consisted of 0.02 M HEPES (pH 7.4), 0.5% Triton X-100, 0.3 M NaCl, 20 mM NaF, 1 mM each of Na4 P2 O7, Na3 VO4, DTT, EGTA and EDTA, 1 μg/ml each of leupeptin, aprotinin, and pepstatin, 0.5 mM PMSF, and 50 nM okadaic acid. Lysates were incubated on ice for 15 min, centrifuged at 10,000×g for 15 minutes at 4° C., then the supernatants were either used immediately or stored -70° C. For binding reactions with the chrysin affinity resin, lysates (2 ml) were diluted 1:2 with ice-cold 0.02 M HEPES (pH 7.4), then competitor compounds (or 0.1% final DMSO as the control), as indicated, were added to a final concentration of 10 μM and the lysates incubated on ice for 30 min. Chrysin-Sepharose (0.2 ml) was then added and the reactions gently mixed for 1 hr at 4° C. After 3 washes with cold 0.02 M HEPES (pH 7.4), 0.15 M NaCl, 0.25% Triton X-100, bound proteins were eluted with 2 ml 0.02 M ethanolamine (pH 9.5), 0.1% SDS, 0.5 mM chrysin, 1.0% DMSO at 23° C. Samples were concentrated via centrifugation at 23° C. through a 10 kD cut-off membrane (Centricon), then analyzed by SDS-PAGE (8%), and silver stained.
# HIV-1 activation experiments were conducted in the presence or absence of DRB. […] Furthermore, the effective dose range of DRB (1-10 μM) was nearly identical to that of the other compounds (FIG. 2, inset), and toxicity over the effective dose range for the other compounds was also negligible.
# [2] = system: chrysin-binding proteins p44, p40, p29, p28 (subunits of CKII); experiment: Chrysin affinity resin binding reaction with competitor compounds in OM-10.1 cell lysates (SDS-PAGE silver stain, anti-CKII immunoblot); set-up: species or system human; settings: for effect of competitor on binding of proteins (p44, p40, p29, p28) to the chrysin-resin: competitor 10 μM added to lysate of TNF-α-induced OM-10.1 cells; for effect of competitor on binding of proteins (p44, p40, p29, p28) to the chrysin-resin / effect of competitor on binding of p28 to chrysin resin: silver staining; for effect of competitor on immunodetection of α, α' and β subunits of CKII bound to the chrysin resin / effect of competitor on binding of p28 to chrysin resin: competitor 10 μM; for effect of competitor on immunodetection of α, α' and β subunits of CKII bound to the chrysin resin: anti-CKII immunoblot
# Description: The affinity resin was made by attachment of 4'-OH-chrysin chrysin (apigenin) to epoxy-activated Sepharose 6B, resulting in chrysin in an ether-linkage. The resin (2 g, dry) was washed with water then 0.1 N NaOH, added to 60 ml 0.01 M apigenin in 0.1 N NaOH (or 0.1 N NaOH only for a non-derivatized control resin), and incubated with gentle mixing for 24 hr at 37° C. The resin then underwent a series of washes (Ghenbot, et al., Prot. Expr. Purif. Vol. 3, pp. 470-478 (1992)) and the residual reactive groups capped with 0.1 M ethanolamine for 16 hr at 37° C. After washing with water, the resin was stored at 4° C. in 0.2% NaN3.
# as §2
# For Western analysis, proteins were transferred to PVDF and probed with a combination of two antibody reagents, one recognizing an epitope common to both the α and α' subunit of CKII (Upstate Biotechnology) and the other reacting with the β subunit of CKII (a gift from D. Litchfield, University of Western Ontario). Final detection was with enhanced chemiluminescence (Amersham).
# To identify the targets of HIV-1 inhibitory flavonoids, Sepharose was derivatized with the flavonoid chrysin and interacted with lysates from OM-10.1 cells as described in Example I. Cultures induced to maximally express HIV-1 (24 hr treatment with TNF-α) were utilized to ensure the presence of both cellular and viral proteins.
# To further confirm that the chrysin-binding proteins were indeed the subunits of CKII, resin-binding reactions were performed using a selective inhibitor of CKII activity, 5,6 dichloro-1-β-D-ribofuranosylbenzimidazole (DRB), and the results analyzed by silver staining and anti-CKII immunoblotting. […] Since the apparent mass of the β chain of CKII is increased by phosphorylation (Luscher, B. L., et al. Eur. J. Biochem. Vol. 220, pp. 521-526 (1994)), it was possible that p28 represented an unphosphorylated form of p29. […] Furthermore, the major p28 band observed by silver stain was absent by immunoblot analysis. This absence was not due to an inability of the CKIIβ antibody to recognize dephosphorylated CKIIβ, which had lower apparent mass following alkaline phosphatase treatment. […]
# OM-10.1 cells = experiment: OM-10.1 culture viability (flow cytometric propidium iodide exclusion); assay type: cell-based, human; settings: OM-10.1 cultures; viability assessed at 24 hr
# Description: as §1
# NF-κB = NF-κB activation and I-κB degradation upon cellular activation; assay type: cell-based
# casein kinase I = settings: Shugar 1994; cited from earlier work
# [3] = target: human recombinant CKII (ααββ form) (Homo sapiens, UniProt P68400); experiment: Human recombinant CKII enzyme kinetics; assay type: biochemical; settings: for inhibition of CKII enzymatic activity: 37° C.
# Sequence of human recombinant CKII (ααββ form) (P68400 whole entry): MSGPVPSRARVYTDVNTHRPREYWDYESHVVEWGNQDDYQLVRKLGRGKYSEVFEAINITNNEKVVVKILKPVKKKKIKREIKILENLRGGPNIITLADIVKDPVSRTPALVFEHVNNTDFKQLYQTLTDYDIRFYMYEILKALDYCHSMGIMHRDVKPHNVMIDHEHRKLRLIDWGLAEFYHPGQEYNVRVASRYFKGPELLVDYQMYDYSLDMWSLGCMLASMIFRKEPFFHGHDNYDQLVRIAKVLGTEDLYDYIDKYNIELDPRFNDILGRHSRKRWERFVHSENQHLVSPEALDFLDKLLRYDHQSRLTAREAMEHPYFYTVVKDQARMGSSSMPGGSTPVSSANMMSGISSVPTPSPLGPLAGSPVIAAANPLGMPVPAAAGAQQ
# Sequence of human recombinant CKII (ααββ form) (P67870 whole entry partner): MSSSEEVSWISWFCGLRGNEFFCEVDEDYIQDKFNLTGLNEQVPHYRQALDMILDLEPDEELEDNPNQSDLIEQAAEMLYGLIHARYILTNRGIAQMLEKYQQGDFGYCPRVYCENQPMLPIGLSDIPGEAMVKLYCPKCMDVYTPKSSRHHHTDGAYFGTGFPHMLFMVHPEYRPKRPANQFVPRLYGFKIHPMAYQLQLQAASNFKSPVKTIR
# Description: Reactions were carried out at 37° C. in 0.025 M HEPES (pH 7.4), 0.15 M KCl, 0.01 M MgCl2, 1.4 mM β-mercaptoethanol, 1 mM DTT, 1 mM EGTA, 10% glycerol, 0.32 mM synthetic CKII peptide, ([…]), 1 μU/μl CKII, and the indicated concentrations of ATP and test agents. Unincorporated [γ-^32 P] ATP was removed by spotting reactions onto P81 phosphocellulose paper (Whatman) and washing in 0.75 mM phosphoric acid then acetone.
# HIV-1 [4] = settings: latently and chronically infected cells; Butera et al. 1995, Critchfield et al. 1996; cited from earlier work
# HIV-1 [5] = experiment: Down modulation of cell surface CD4 in TNF-α-induced OM-10.1 cultures; assay type: cell-based, HIV-1 in OM-10.1 cells
# Text: Critical tools for studying the efferent phase of the HIV life cycle are the latently infected cell lines such as UI, ACH2, J1, and OM-10.1. […] HIV activation can also be achieved by phorbol esters such as PMA (phorbol -12-myristate-13-acetate).
# The CD4 response is a direct consequence of viral activation and allows a rapid, convenient and highly reproducible assessment of treatments that modify TNF-α expression of HIV from its latent state. In addition, the down modulation of CD4 is not affected by inhibitors of virion assembly or release such as protease inhibitors. Thus, by measuring cell surface CD4 and a virion constituent such as reverse transcriptase (RT), it is possible to discriminate between inhibition of HIV assembly, release and earlier events.
# HIV = settings: acutely infected H9 cells (baicalin also CEM-ss cells and PBMCs); cited from earlier work
smiles,measurement,setting,value
NCCNS(=O)(=O)c1ccc(Cl)c2ccncc12 [CKI-7],HIV-1 inhibitory activity in the OM-10.1 induction system,HIV-1 [1],without HIV-1 inhibitory activity
"OC[C@H]1O[C@@H](n2cnc3cc(Cl)c(Cl)cc32)[C@H](O)[C@@H]1O [DRB, 5,6-dichloro-1-β-D-ribofuranosylbenzimidazole]","effect of competitor on binding of proteins (p44, p40, p29, p28) to the chrysin-resin",[2],prevented the binding of the same proteins that were competed by free chrysin
same,"effect of competitor on immunodetection of α, α' and β subunits of CKII bound to the chrysin resin",[2],eliminated their immunodetection
same,effect of competitor on binding of p28 to chrysin resin,[2],the only exception being p28
same,EC50,"HIV-1 [1]; Human immunodeficiency virus 1, TNF-α-treated OM-10.1 cultures, RT measured 48 hr after HIV activation, read-out: ED50, reduction in culture supernatant reverse transcriptase activity",~2000 nM
same,HIV-1 inhibitory activity in the OM-10.1 induction system,HIV-1 [1],markedly inhibited; also recorded: potently inhibits
same,effective dose range for inhibition of HIV-1 expression,HIV-1 [1]; TNF-α-treated OM-10.1 cultures,1 to 10 µM
same,culture viability / toxicity over the effective dose range,OM-10.1 cells,did not decline
same,NF-κB activation and function,NF-κB; TNF-α-treated OM-10.1 cultures,appeared normal
same,degradation of I-κB upon cellular activation,NF-κB; in the presence of compound,Normal degradation
same,inhibitory activity against casein kinase I,casein kinase I,appreciable inhibitory activity
COc1ccc2c(c1)c(OC(C)C)c(C(N)=O)[s+]2[O-] (stereo not shown) [PD 144795],"effect of competitor on binding of proteins (p44, p40, p29, p28) to the chrysin-resin",[2],pattern of binding inhibition identical to that of DRB
same,effect of competitor on binding of p28 to chrysin resin,[2],did not alter
same,inhibition of CKII enzymatic activity,[3],inhibition of CKII enzyme activity
same,HIV-1 inhibitory activity in the OM-10.1 induction system,HIV-1 [1],HIV-inhibitory
same,inhibition of HIV transcription,HIV-1 [4],inhibiting HIV transcription at micromolar concentrations
O=C1CN=C(c2ccc[nH]2)c2cc(Cl)ccc2N1 [Ro 5-3335],inhibition of RT,HIV-1 [1]; TNF-α-induced OM-10.1 cultures,inhibits both of these measures to a similar extent
same,inhibition of down modulation of CD4,HIV-1 [5],inhibits both of these measures to a similar extent
O=c1cc(-c2ccc(O)cc2)oc2cc(O)cc(O)c12 [apigenin],"effect of competitor on binding of proteins (p44, p40, p29, p28) to the chrysin-resin",[2],specifically inhibited in their binding to the resin
same,HIV-1 inhibitory activity in the OM-10.1 induction system,HIV-1 [1],HIV-inhibitory
O=C(O)[C@H]1O[C@@H](Oc2cc3oc(-c4ccccc4)cc(=O)c3c(O)c2O)[C@H](O)[C@@H](O)[C@@H]1O [baicalin],inhibition of HIV replication in acutely infected cells,HIV,inhibits HIV replication
Oc1cc(O)c2c(c1)OC(c1ccc(O)c(O)c1)C(O)C2 (stereo not shown) [catechin],"effect of competitor on binding of proteins (p44, p40, p29, p28) to the chrysin-resin",[2],no effect
same,HIV-1 inhibitory activity in the OM-10.1 induction system,HIV-1 [1],lacking HIV-1 inhibitory activity
O=c1cc(-c2ccccc2)oc2cc(O)cc(O)c12 [chrysin],"effect of competitor on binding of proteins (p44, p40, p29, p28) to the chrysin-resin",[2],specifically inhibited in their binding to the resin
same,"effect of competitor on immunodetection of α, α' and β subunits of CKII bound to the chrysin resin",[2],eliminated their immunodetection
same,kinetics of CKII inhibition with respect to ATP,[3],competitive kinetics with respect to ATP
same,inhibition of CKII enzymatic activity,[3],inhibit human recombinant CKII enzymatic activity
same,inhibition of HIV transcription,HIV-1 [4],potent inhibitors
same,inhibition of HIV replication in acutely infected cells,HIV,significant inhibitory activity
COc1ccc([C@@H]2CC(=O)c3c(O)cc(O[C@@H]4O[C@H](CO[C@@H]5O[C@@H](C)[C@H](O)[C@@H](O)[C@H]5O)[C@@H](O)[C@H](O)[C@H]4O)cc3O2)cc1O [hesperidin],"effect of competitor on binding of proteins (p44, p40, p29, p28) to the chrysin-resin",[2],no effect
same,HIV-1 inhibitory activity in the OM-10.1 induction system,HIV-1 [1],lacking HIV-1 inhibitory activity
